Experiments:
[1] = test system: WEHI 231 cells; experiment: DNA fragmentation assay (α-sIgM-induced apoptosis); assay type: cell-based, mouse; settings: 0.1 μM quinacrine, 6 μg/mL ODN 1760, α-sIgM, 16 hours
Experimental: The DNA fragmentation assay was carried out generally as follows. WEHI 231 cells were incubated with 0.5 μCi/milliliter [^3H] thymidine for 3 hours, centrifuged, resuspended in 2 milliliters of fresh medium at 2×10^5/milliliter, and incubated in a 24-well plate with additions as indicated. After incubation for 16-18 hours, 1 milliliter aliquots of the cells were centrifuged, washed with 200 μliters PBS. This suspension was drawn into a pipette tip containing 25 μliters of 2% SDS, and the mixture was immediately ejected into a well of a 0.8% agarose TBE gel containing 0.5 μliter/milliliter ethidium bromide. The gel was electrophoresed for 1 hour at 65 volts, destained in water, and photographed under ultraviolet light. The lanes of the gel were cut into three approximately equal portions. […] The gel portions were melted in glass scintillation vials and mixed with a 20 milliliter of scintillation cocktail and counted in a scintillation counter. The amount of fragmented DNA (DNA in the second and third gel pieces) was expressed as a percentage of the total counts recovered in the lane.
Referring to the experiments summarized in FIG. 2a, WEHI 231 cells (2×10^5 per milliliter) were incubated with or without 6 μgrams/milliliter ODN 1760, 10 μgrams/milliliter α-sIgM, or 0.1 μM quinacrine as indicated. Live cells were counted daily. […]

[2] = test system: WEHI 231 cells; experiment: CpG-ODN-induced IL-6 synthesis (ELISA); assay type: cell-based, mouse; settings: 10 nM
Experimental: The assay of IL6 was generally carried out as follows. […] After 24 hours, the IL-6 content of the supernatant was assayed by enzyme-linked immunoassay using two monoclonal antibodies in a sandwich technique as described by the manufacturer, using standards supplied (PharMingen, San Diego Calif.).

[3] = test system: human mononuclear cells; experiment: ODN 1760-induced [3H] thymidine incorporation in human mononuclear cells; assay type: cell-based; settings: unfractionated human peripheral blood cells, four days
Experimental: [^3H] thymidine incorporation (18 hour pulse) was then measured. […] Thymidine incorporation for untreated samples was less than 0.05%. Samples from three donors were averaged, and error bars indicate 1 standard deviation.

[4] = test system: human peripheral blood mononuclear cells (PBMC); experiment: ODN 1760-induced IL-6 production in human peripheral blood mononuclear cells; assay type: cell-based; settings: 24 hours
Experimental: Referring to the experiments summarized in FIG. 9, human peripheral blood mononuclear cells (PBMC) from three donors were incubated with or without ODN 1760 and the indicated concentration of test compound. After 24 hours, the concentration of IL-6 was determined in the supernatant. The figure indicates the percentage of IL-6 in reference to ODN-treated cells. The IL-6 amounts for control sample per donor were as follows: donor 1, 203 picograms/milliliter; donor 2, 71.5 picograms/milliliter; donor 3, 465 picograms/milliliter. IL-6 measured from untreated cells was 0-21 picograms/milliliter. Results from the three donors were averaged, and error bars indicate 1 standard deviation.

[5] = test system: WEHI 231 cells; experiment: Protection by lipopolysaccharide against α-sIgM-induced inhibition of [3H] thymidine uptake; assay type: cell-based, mouse; settings: 0.1 μM quinacrine, concentration that completely reversed the effect of ODN 1760
Experimental: (§1) The assay of [^3H] Thymidine incorporation was carried out as follows. WEHI 231 cells (200 μL at 2×10^5/milliliter, in duplicate or triplicate) were incubated in a 96-well plate (Costar, Cambridge Mass.). Additions were made as indicated. After incubating for 16 hours, 0.5 μCi [methyl-^3H] thymidine (2 Ci/millimole, DuPont NEN, Boston Mass.) was added to each well, and the cells were incubated for another 4 hours. Cellular DNA was then captured onto glass fiber filters (Whatman 934AH) using a cell harvester (Brandel, Gaithersberg Md.). The filters were dried, placed into plastic scintillation vials with 10 milliliters of scintillation cocktail (EconoSafe, Research Products International, Mount Prospect Ill.), and counted in a liquid scintillation counter (Beckman LS-3133 T). The ^3H recovered on the filter was expressed as a fraction of the ^3H added. In a typical experiment, WEHI 231 cells incorporate about 15% of added ^3H.
In the experiments summarized in FIG. 5, the influence of LPS on α-sIgM-induced suppression of thymidine incorporation was examined.
Lipopolysaccharide (LPS) was added at the indicated concentration with or without 10 μgrams/milliliter α-sIgM and 0.1 μM quinacrine. The small degree of protection against α-sIgM-induced inhibition of [^3H] thymidine uptake afforded by LPS is not influenced by quinacrine.

[6] = test system: WEHI 231 cells; experiment: Protection by ODN 1760 against C2-ceramide-induced inhibition of [3H] thymidine uptake; assay type: cell-based, mouse; settings: 0.1 μM quinacrine, 6 μg/mL ODN
Experimental: as §1
Referring to the experiments summarized in FIG. 6, WEHI 231 cells were incubated with C2-ceramide as indicated with or without 6 μgrams/milliliter ODN and 0.1 μM quinacrine and thymidine incorporation was estimated. Referring to the experiments summarized in FIG. 7, WEHI 231 cells were prelabeled with 0.5 μCi/milliliter [^3H] thymidine for 3 hours, and resuspended in fresh medium containing 10 nM thapsigargin. […]

[7] = test system: multi-drug resistance pump; experiment: Potency with inhibition of the multi-drug resistance pump; assay type: cell-based
[8] = test system: WEHI 231 cells; settings: 0.1 μM quinacrine
Experimental: Unless otherwise noted, cell culture conditions were as follows. WEHI 231 cells (ATTC #CRL 1702) were grown in log phase in a medium of RPMI 1640 supplemented with 10% fetal bovine serum (heat inactivated at 65° C. for one hour), 0.3 grams/Liter of L-glutamine, 50 milligrams/Liter gentamycin, and 0.05 mM 2-mercaptoethanol in a 37° C. humid atmosphere with 5% CO2. WEHI 231 cells were diluted with 0.4% trypan blue in phosphate-buffered saline (PBS) and live cells were counted in a hemocytometer chamber. Cells were resuspended in medium at 2×10^5/milliliter in 24-well tissue culture plates (Costar, Cambridge Mass.). Appropriate additions were made, and the cells were incubated and counted daily. WEHI 231 cells were diluted with fresh medium if the concentration exceeded 7×10^5/milliliter.
Referring to the experiments summarized in FIG. 2a, WEHI 231 cells (2×10^5 per milliliter) were incubated with or without 6 μgrams/milliliter ODN 1760, 10 μgrams/milliliter α-sIgM, or 0.1 μM quinacrine as indicated. Live cells were counted daily. The cells were diluted in medium if their concentration exceeded 7×10^5 per milliliter.

## CCN(CC)CCCC(C)Nc1c2ccc(Cl)cc2nc2ccc(OC)cc12 (stereo not drawn) [quinacrine]
[1]
  Reversal of ODN 1760 protection, percentage of fragmented DNA (FIG. 2b): reversed this protection
[2]
  Reversal of ODN 1760 effect on IL-6 elaboration: completely reversed
[3]
  Effect on ODN 1760-induced thymidine incorporation (FIG. 8): inhibited
[4]
  Effect on ODN 1760-induced IL-6 production (FIG. 9): inhibited
[5]
  Effect on the action of LPS (FIG. 5): no effect
[6]
  Block of ODN 1760 protection against C2-ceramide (FIG. 6): blocked this protective effect
[7]
  Change of potency on inhibition of the multi-drug resistance pump: magnified
[8]
  Influence of compound alone on cell growth and on cell death induced by α-sIgM: influenced neither cell growth nor cell death
[8]; 6 μg/mL ODN 1760, 10 μg/mL α-sIgM
  Reversal of ODN 1760 protection, cell count over a period of three days (FIG. 2a): reversed this protection
